For one test, the target named is T1, mTRPV2 (Mus musculus, UniProt Q9WTR1).
T1 construct: expressed in transfected cells; host or cells: HEK293T
T1 sequence (Q9WTR1 1-756): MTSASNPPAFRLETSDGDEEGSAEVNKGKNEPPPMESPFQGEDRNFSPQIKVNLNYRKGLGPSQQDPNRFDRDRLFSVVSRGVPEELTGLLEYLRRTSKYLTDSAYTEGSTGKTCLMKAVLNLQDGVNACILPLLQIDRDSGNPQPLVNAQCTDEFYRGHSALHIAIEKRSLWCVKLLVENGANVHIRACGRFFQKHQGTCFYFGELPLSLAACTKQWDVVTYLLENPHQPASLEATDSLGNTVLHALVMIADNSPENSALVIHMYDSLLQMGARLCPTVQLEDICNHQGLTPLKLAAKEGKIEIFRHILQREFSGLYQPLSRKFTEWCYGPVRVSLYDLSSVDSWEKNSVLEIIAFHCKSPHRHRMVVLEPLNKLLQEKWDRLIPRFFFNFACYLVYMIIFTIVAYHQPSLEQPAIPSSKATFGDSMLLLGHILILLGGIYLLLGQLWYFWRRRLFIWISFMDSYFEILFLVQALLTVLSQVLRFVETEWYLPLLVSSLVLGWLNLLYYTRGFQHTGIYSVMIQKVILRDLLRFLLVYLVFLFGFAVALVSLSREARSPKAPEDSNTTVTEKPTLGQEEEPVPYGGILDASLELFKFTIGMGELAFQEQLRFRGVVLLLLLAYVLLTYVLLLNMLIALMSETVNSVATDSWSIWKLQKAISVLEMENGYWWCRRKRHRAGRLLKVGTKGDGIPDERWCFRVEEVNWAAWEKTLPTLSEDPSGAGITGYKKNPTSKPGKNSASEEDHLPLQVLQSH
Put plainly: whole-cell patch-clamp of mTRPV2 currents activated by 2-APB. The test is classed as cell-based. The following applies: ROSA 50 μM; agonist 2-APB 2 mM; read-out: inhibition of TRPV2 currents. As for the experimental part:
(§1) HEK293T cell line was obtained from the Cell Resource Center, Peking Union Medical College. HEK293T cells were maintained in Dulbecco’s modified Eagle’s medium (DMEM, Gibco) supplemented with 10% fetal bovine serum at 37 °C with 5% CO2. […] The next day, determine the plasmid transfection status by observing green fluorescence based on expression of enhanced GFP as an indicator. […] When conducting experiments on HEK293T cells transfected with G573S point mutant TRPV3 plasmid, we replaced culture medium with or without compounds after 4 h of transfection and then observed green fluorescence of HEK293T cell after 10 h. As for the relative fluorescence intensity, we convert the image to 8 bit grayscale using ImageJ (Https://imagej.net/software/fiji/downloads) and set an appropriate threshold value to reduce background noise and enhance the image contrast.
(§2) All patch-clamp recordings were conducted 16 to 24 h after transfection using an EPC10 amplifier powered by PatchMaster software (HEKA) (https://www.heka.com/downloads/downloads_main.html#down_patchmaster) at room temperature. […] Currents were recorded at a potential ramp from −100 mV to +100 mV for 1000 ms with 1000-ms intervals (for whole-cell recordings) or a persistent potential of −60 mV (inside-out patch recordings). […]

For the next test, the target named is T2, TRPV3 T636A (Homo sapiens, UniProt Q8NET8, T636A).
T2 construct: expressed in transfected cells; host or cells: HEK293T
T2 sequence (Q8NET8 1-790 T636A): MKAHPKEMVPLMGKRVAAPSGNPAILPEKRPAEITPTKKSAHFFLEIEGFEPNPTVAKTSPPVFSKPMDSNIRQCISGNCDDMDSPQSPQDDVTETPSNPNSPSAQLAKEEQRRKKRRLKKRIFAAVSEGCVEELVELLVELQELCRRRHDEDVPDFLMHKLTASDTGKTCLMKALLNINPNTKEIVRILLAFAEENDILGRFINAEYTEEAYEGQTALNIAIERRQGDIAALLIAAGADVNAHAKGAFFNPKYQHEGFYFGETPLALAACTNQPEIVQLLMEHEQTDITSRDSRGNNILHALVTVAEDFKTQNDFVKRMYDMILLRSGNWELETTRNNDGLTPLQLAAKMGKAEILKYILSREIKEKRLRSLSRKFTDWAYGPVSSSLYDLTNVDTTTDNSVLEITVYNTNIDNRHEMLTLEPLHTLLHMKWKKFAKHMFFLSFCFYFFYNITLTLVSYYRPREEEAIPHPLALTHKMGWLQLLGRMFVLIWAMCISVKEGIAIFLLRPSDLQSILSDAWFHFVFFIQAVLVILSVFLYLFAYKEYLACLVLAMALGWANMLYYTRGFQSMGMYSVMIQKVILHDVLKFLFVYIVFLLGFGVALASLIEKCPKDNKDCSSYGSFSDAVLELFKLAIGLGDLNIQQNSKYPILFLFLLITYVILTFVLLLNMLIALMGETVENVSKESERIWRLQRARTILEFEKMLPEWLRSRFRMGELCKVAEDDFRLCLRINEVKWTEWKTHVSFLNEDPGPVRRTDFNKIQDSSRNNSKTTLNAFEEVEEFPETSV
As to the kind of experiment: single-channel inside-out patch recordings of TRPV3 T636A mutant. The class given is cell-based. The conditions noted are these: ROSA 100 μM co-applied with 2-APB 50 μM; n = 4. As for the experimental part:
as §1, §2

Experimental findings from article PMC12206033, “Selective inhibition of TRPV3 channel by natural rosmarinic acid and its analogs for alleviation of skin lesions through downregulation of NF-κB pathway” (The Journal of Biological Chemistry, 2025) are described below.

Consider `O=C(/C=C/c1ccc(O)c(O)c1)O[C@H](Cc1ccc(O)c(O)c1)C(=O)O` [ROSA, rosmarinic acid], for which the inhibition at 50 µM on mTRPV2 was 21 ± 6.1%. Moreover, the “single-channel open probability, T636A mutant” value on TRPV3 T636A stood at 0.67.
